O=C(O)c1cccc(-c2cc3cc(Cl)c(Cl)cc3[nH]2)c1 [Example 1, 3-(5,6-Dichloro-1H-indol-2-yl)-benzoic acid]
melting point: 79.5 to 80.5 °C

— US20060205751A1, “Novel compounds” (SmithKline Beecham Corporation, priority 2003, published 2006)
